Test results published in patent US20260042731A1, “(2,4-DICHLOROPHENOXY)ACETIC ACID ANALOGS” (CORTEVA AGRISCIENCE LLC, priority 2022, published 2026).
Several values for one entry are separate records, joined by “and”; a condition that tells them apart may be missing. Equal entries are not always repeated. Where two headings read alike, the source gives them in different places.

Assays:
[1] = tested on: weeds ABUTH, AMATA, AMBEL, CHEAL, ERICA; assay: Postemergence herbicide evaluation, overall average % weed control (ABUTH, AMATA, AMBEL, CHEAL, ERICA); type: in vivo; settings: post-emergence, read-out: Overall Ave % Weed Control; for pest or weed control at 280 g/ha: 280 g ae/ha; for pest or weed control at 560 g/ha: 560 g ae/ha
[2] = Volatility of compounds measured by thermogravimetric analysis (TGA); type: physicochemical
[3] = tested on: Amaranthus rudis (AMATA), tall water hemp; assay: Postemergence herbicide evaluation, growth of Amaranthus rudis (AMATA); type: in vivo; settings: Amaranthus tuberculatus, post-emergence, read-out: Ave. AMATA, percent reduction in plant size relative to the untreated control; for pest or weed control at 280 g/ha: 280 g ae/ha; for pest or weed control at 560 g/ha: 560 g ae/ha
[4] = tested on: Abutilon theophrasti (ABUTH), velvetleaf; assay: Postemergence herbicide evaluation, growth of Abutilon theophrasti (ABUTH); type: in vivo; settings: Abutilon theophrasti, post-emergence, read-out: AVE. ABUTH, percent reduction in plant size relative to the untreated control; for pest or weed control at 280 g/ha: 280 g ae/ha; for pest or weed control at 560 g/ha: 560 g ae/ha
[5] = tested on: Ambrosia artemisiifolia (AMBEL), common ragweed; assay: Postemergence herbicide evaluation, growth of Ambrosia artemisiifolia (AMBEL); type: in vivo; settings: Ambrosia artemisiifolia, post-emergence, read-out: AVE. AMBEL, percent reduction in plant size relative to the untreated control; for pest or weed control at 280 g/ha: 280 g ae/ha; for pest or weed control at 560 g/ha: 560 g ae/ha
[6] = tested on: glyphosate resistant Conyza canadensis (L.) (ERICA), horseweed; assay: Postemergence herbicide evaluation, growth of Conyza canadensis (ERICA); type: in vivo; settings: Erigeron canadensis, post-emergence, read-out: Ave. ERICA, percent reduction in plant size relative to the untreated control; for pest or weed control at 280 g/ha: 280 g ae/ha; for pest or weed control at 560 g/ha: 560 g ae/ha
[7] = tested on: Chenopodium album (CHEAL), common lambsquarters; assay: Postemergence herbicide evaluation, growth of Chenopodium album (CHEAL); type: in vivo; settings: Chenopodium album, post-emergence, read-out: Ave. CHEAL, percent reduction in plant size relative to the untreated control; for pest or weed control at 280 g/ha: 280 g ae/ha; for pest or weed control at 560 g/ha: 560 g ae/ha

Compound	pest or weed control at 280 g/ha ([1]; 168 h, 7 DAA)	pest or weed control at 560 g/ha ([1]; 168 h, 7 DAA)	pest or weed control at 280 g/ha ([1]; 336 h, 14 DAA)	pest or weed control at 560 g/ha ([1]; 336 h, 14 DAA)	pest or weed control at 280 g/ha ([1]; 504 h, 21 DAA)	pest or weed control at 560 g/ha ([1]; 504 h, 21 DAA)	TGA Data (rate of weight loss, volatility) [2]	pest or weed control at 280 g/ha ([3]; 168 h, 7 DAA)	pest or weed control at 560 g/ha ([3]; 168 h, 7 DAA)	pest or weed control at 280 g/ha ([3]; 336 h, 14 DAA)	pest or weed control at 560 g/ha ([3]; 336 h, 14 DAA)	pest or weed control at 280 g/ha ([3]; 504 h, 21 DAA)	pest or weed control at 560 g/ha ([3]; 504 h, 21 DAA)	pest or weed control at 280 g/ha ([4]; 168 h, 7 DAA)	pest or weed control at 560 g/ha ([4]; 168 h, 7 DAA)	pest or weed control at 280 g/ha ([4]; 336 h, 14 DAA)	pest or weed control at 560 g/ha ([4]; 336 h, 14 DAA)	pest or weed control at 280 g/ha ([4]; 504 h, 21 DAA)	pest or weed control at 560 g/ha ([4]; 504 h, 21 DAA)	pest or weed control at 280 g/ha ([5]; 168 h, 7 DAA)	also measured
O=C(COc1ccc(Cl)cc1Cl)O/N=C/c1cccnc1 [Compound A29]	71.5%	79.7%	85.8%	94.7%	88.1%	98.3%	0.38 µg/min	70%	91%	90%	97%	72.5%	100%	50%	70%	67.5%	82.5%	77.5%	97.5%	77.5%	pest or weed control at 560 g/ha ([5]; 168 h, 7 DAA): 77.5%; pest or weed control at 280 g/ha ([5]; 336 h, 14 DAA): 75%; pest or weed control at 560 g/ha ([5]; 336 h, 14 DAA): 100%; pest or weed control at 280 g/ha ([5]; 504 h, 21 DAA): 100%; pest or weed control at 560 g/ha ([5]; 504 h, 21 DAA): 100%; pest or weed control at 280 g/ha ([6]; 168 h, 7 DAA): 77.5%; pest or weed control at 560 g/ha ([6]; 168 h, 7 DAA): 82.5%; pest or weed control at 280 g/ha ([6]; 336 h, 14 DAA): 100%; pest or weed control at 560 g/ha ([6]; 336 h, 14 DAA): 99%; pest or weed control at 280 g/ha ([6]; 504 h, 21 DAA): 99%; pest or weed control at 560 g/ha ([6]; 504 h, 21 DAA): 96.5%; pest or weed control at 280 g/ha ([7]; 168 h, 7 DAA): 82.5%; pest or weed control at 560 g/ha ([7]; 168 h, 7 DAA): 77.5%; pest or weed control at 280 g/ha ([7]; 336 h, 14 DAA): 96.5%; pest or weed control at 560 g/ha ([7]; 336 h, 14 DAA): 95%; pest or weed control at 280 g/ha ([7]; 504 h, 21 DAA): 91.5%; pest or weed control at 560 g/ha ([7]; 504 h, 21 DAA): 97.5%
O=C(COc1ccc(Cl)cc1Cl)O/N=C/c1ccncc1 [Compound A30]	78%	86.1%	91.5%	95.5%	95.4%	98.6%	0.9679 µg/min	75%	94%	96%	93.5%	92.5%	99%	62.5%	80%	77.5%	96.5%	87.5%	99.5%	85%	pest or weed control at 560 g/ha ([5]; 168 h, 7 DAA): 96.5%; pest or weed control at 280 g/ha ([5]; 336 h, 14 DAA): 90%; pest or weed control at 560 g/ha ([5]; 336 h, 14 DAA): 97.5%; pest or weed control at 280 g/ha ([5]; 504 h, 21 DAA): 100%; pest or weed control at 560 g/ha ([5]; 504 h, 21 DAA): 100%; pest or weed control at 280 g/ha ([6]; 168 h, 7 DAA): 87.5%; pest or weed control at 560 g/ha ([6]; 168 h, 7 DAA): 80%; pest or weed control at 280 g/ha ([6]; 336 h, 14 DAA): 100%; pest or weed control at 560 g/ha ([6]; 336 h, 14 DAA): 100%; pest or weed control at 280 g/ha ([6]; 504 h, 21 DAA): 99%; pest or weed control at 560 g/ha ([6]; 504 h, 21 DAA): 94.5%; pest or weed control at 280 g/ha ([7]; 168 h, 7 DAA): 80%; pest or weed control at 560 g/ha ([7]; 168 h, 7 DAA): 80%; pest or weed control at 280 g/ha ([7]; 336 h, 14 DAA): 94%; pest or weed control at 560 g/ha ([7]; 336 h, 14 DAA): 90%; pest or weed control at 280 g/ha ([7]; 504 h, 21 DAA): 98%; pest or weed control at 560 g/ha ([7]; 504 h, 21 DAA): 100%
O=C(COc1ccc(Cl)cc1Cl)O/N=C/c1ccccn1 [Compound A32]	74%	76.5%	87.4%	92.6%	88.8%	97.6%	0.809 µg/min and 0.87 µg/min	70%	90%	96%	87.5%	60%	94%	55%	67.5%	74%	88.5%	87.5%	98.5%	75%	pest or weed control at 560 g/ha ([5]; 168 h, 7 DAA): 75%; pest or weed control at 280 g/ha ([5]; 336 h, 14 DAA): 72.5%; pest or weed control at 560 g/ha ([5]; 336 h, 14 DAA): 92.5%; pest or weed control at 280 g/ha ([5]; 504 h, 21 DAA): 100%; pest or weed control at 560 g/ha ([5]; 504 h, 21 DAA): 100%; pest or weed control at 280 g/ha ([6]; 168 h, 7 DAA): 87.5%; pest or weed control at 560 g/ha ([6]; 168 h, 7 DAA): 75%; pest or weed control at 280 g/ha ([6]; 336 h, 14 DAA): 97%; pest or weed control at 560 g/ha ([6]; 336 h, 14 DAA): 99.5%; pest or weed control at 280 g/ha ([6]; 504 h, 21 DAA): 99%; pest or weed control at 560 g/ha ([6]; 504 h, 21 DAA): 98%; pest or weed control at 280 g/ha ([7]; 168 h, 7 DAA): 82.5%; pest or weed control at 560 g/ha ([7]; 168 h, 7 DAA): 75%; pest or weed control at 280 g/ha ([7]; 336 h, 14 DAA): 97.5%; pest or weed control at 560 g/ha ([7]; 336 h, 14 DAA): 95%; pest or weed control at 280 g/ha ([7]; 504 h, 21 DAA): 97.5%; pest or weed control at 560 g/ha ([7]; 504 h, 21 DAA): 97.5%
